The target in one series is rBmPYKI (Babesia microti, UniProt A0A1N6LXR4). Nature of the series: biochemical. The format is biochemical.
The next series deals with rBmLDH (Babesia microti, UniProt I7J7V6). Nature of the series: biochemical. Format: biochemical.
The test system of series [1] is B. microti. Nature of the series: Growth inhibition of Babesia microti by in vitro culture. Format: cell-based. The following applies: for IC50: read-out: IC50 B. microti. The protocol:
Infected mouse blood was collected and centrifuged at 845 × g for 5 min, and the infected mouse RBCs was isolated. The RBCs infected by B. microti were diluted to 5% with uninfected mouse and human RBCs (10:1). […] Drug-free wells were set up as blank control. All treatments were carried out in triplicate. After 72 h of incubation, parasitemia was examined by Giemsa staining under a microscope.

A short description of series [2]: Cytotoxicity assay, Cell Counting Kit-8, HFF cells. Conditions: human. On the technique in general: Formazan colour is commonly taken as a measure of viable cells.
A short description of series [3]: Cytotoxicity assay, Cell Counting Kit-8, Vero cells. Conditions: African green monkey.
For series [4], the system named is B. microti. In words: Rescue assay of tannic acid (pyruvate or ATP added). The format is cell-based, Babesia microti. The method, then:
MilliporeSigma) was used as the positive control, and DMSO was used as the negative control because tannic acid was diluted in DMSO. The group only containing medium without any treatment was used as the blank control. Each test was performed in triplicate.

Substrate in series [5]: C=C(OP(=O)(O)O)C(=O)O
In words: Enzyme kinetics of rBmPYKI on substrates PEP and ADP. Format: biochemical, Babesia microti. The following applies: other: substrate of rBmPYKI; other substrate saturating; pH 7.0; 37.0 °C. The method, then: (§1) To determine the enzymatic activity of purified rBmPYKI, the GST tag was removed from the recombinant protein; and the indirect coupled lactate dehydrogenase (LDH) assay was applied. Recombinant B. microti LDH (rBmLDH) protein, the only one isoform in B. microti, was expressed and purified according to previously published protocol ([Yu et al., 2019]). The standard enzyme kinetic assay was conducted by monitoring the decrease in NADH at a wavelength of 340 nm using a microplate reader (BioTek, Winooski, VT, United States). One unit of the PYK activity here was defined as 1 μmol of NADH oxidized per minute at 37°C. The samples were continuously measured at 2, 7, 12, 17, 22, and 27 min. To determine the effects of pH and the concentration of Mg^2+ and K^+ on rBmPYKI, the assay was performed in the pH range of 5.5–8.5, and the Mg^2+ and K^+ concentrations ranged from 0 to 200 mM (0, 25, 50, 75, 100, 125, 150, 175, and 200 mM). […] The initial velocity for the rate of […] of NADH in the first 5 min was calculated, and the relative percentage activity was determined. The kinetic parameters for PEP (at 0.5, 1, 2, 3, 4, and 5 mM) under saturating ADP conditions (3 mM) were determined. […]

Substrate in series [6]: Nc1ncnc2c1ncn2[C@@H]1O[C@H](COP(=O)(O)OP(=O)(O)O)[C@@H](O)[C@H]1O
Nature of the series: Indirect coupled LDH assay following NADH decrease at 340 nm, pH 7.0, 37 °C, 50 mM MgCl2, 20 mM KCl, ADP varied 0.05-2.0 mM at saturating 7 mM PEP, no FBP. The format is biochemical. The protocol:
as §1, with “min.” for “min. To determine the effects of pH and the concentration of Mg^2+ and K^+ on rBmPYKI, the assay was performed in the pH range of 5.5–8.5, and the Mg^2+ and K^+ concentrations ranged from 0 to 200 mM (0, 25, 50, 75, 100, 125, 150, 175, and 200 mM).”
Statistical analysis was conducted with GraphPad Prism 7.0 (GraphPad Software, La Jolla, CA, United States). Statistical significance was evaluated by one-way ANOVA; and all data were presented as the mean ± standard deviation (SD) from at least three independent experiments performed in duplicate. […]

Setting [7] is: in vitro culture, 72 h, parasitemia by Giemsa staining.

“And” between values parts separate entries of the source, which are not always exact repeats. Equal values may be shown once. “Also recorded” adds a separate entry of the source. Read-outs that look alike come from different tables or passages of the source.

rBmLDH, sequence (I7J7V6 1-332): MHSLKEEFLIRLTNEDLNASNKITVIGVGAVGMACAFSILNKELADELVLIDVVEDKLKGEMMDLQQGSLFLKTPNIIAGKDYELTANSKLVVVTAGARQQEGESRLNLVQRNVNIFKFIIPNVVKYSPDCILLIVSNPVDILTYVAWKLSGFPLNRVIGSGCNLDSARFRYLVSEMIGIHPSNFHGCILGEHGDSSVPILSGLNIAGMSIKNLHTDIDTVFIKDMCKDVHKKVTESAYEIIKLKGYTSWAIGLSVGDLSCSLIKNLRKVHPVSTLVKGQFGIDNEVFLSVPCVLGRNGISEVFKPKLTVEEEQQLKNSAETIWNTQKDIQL

As a reminder, the IC50 is the concentration that inhibits the measured activity by half. What is called CC50 is the concentration at which the toxic effect on the cells reaches its halfway point. In the case of `CC1=C(CSC(=S)N2CCCCC2)C(=O)c2ccccc2C1=O` [PKM2 inhibitor], the “effect on the activity of rBmPYKI” value on rBmPYKI is recorded as “significantly inhibit”. The IC50 at rBmPYKI (read-out: IC50 rBmPYKI) is 23 µM; on rBmLDH (read-out: IC50 rBmLDH), > 1950 µM; with B. microti [1] (setting [7]), 1.15 ± 0.11 µM. The “effect on rBmLDH / LDH reaction activity” value at rBmLDH is “did not affect”. The “inhibition rate of B. microti growth” value in the series on B. microti [1] (50 μM, 72 h) was found to be 80%. For the same molecule, the values for the 50% cytotoxic concentration (CC50) with Vero cells and with HFF cells were 39.2 ± 5.05 µM and 18.6 ± 2.46 µM, respectively.

Take `CCc1ccc(CCOc2ccc(CC3SC(=O)NC3=O)cc2)nc1` (centres unmarked) [Pioglitazone]: the half-inhibitory concentration (IC50) on rBmPYKI was 44 µM; at rBmLDH (read-out: IC50 rBmLDH), > 1950 µM. In addition, the “effect on the activity of rBmPYKI” value on rBmPYKI is recorded as “significantly inhibit”. Also, at rBmLDH, the “effect on rBmLDH / LDH reaction activity” value was “did not affect”. In addition, the “effect on the growth of B. microti” value in the series with B. microti [1] (in vitro culture, 72 h) is “no significant effect”.

Turning to `OC[C@H]1O[C@@H](Oc2cc(O)cc(/C=C/c3ccc(O)cc3)c2)[C@H](O)[C@@H](O)[C@@H]1O` [Polydatin], the concentration for half-maximal inhibition (IC50) against rBmPYKI was 92.9 µM. In addition, at rBmLDH, the IC50 came out at 142 µM and the “effect on rBmLDH / LDH reaction activity” value was “obvious inhibitory effect”.

In the case of `CN(CCOc1ccc(CC2SC(=O)NC2=O)cc1)c1ccccn1` (centres unmarked) [Rosiglitazone], the “effect on the activity of rBmPYKI” value on rBmPYKI was “significantly inhibit; also recorded: significantly reduce”. Moreover, the IC50 at rBmPYKI (read-out: IC50 rBmPYKI) was 6.89 µM.

In general, inhibition refers to the change of the read-out against control, counted positive when it falls. Regarding `CC(C)=CC[C@@H](O)C1=CC(=O)c2c(O)ccc(O)c2C1=O` [Shikonin], the IC50 against rBmPYKI was 187 µM; on rBmLDH (read-out: IC50 rBmLDH), > 1950 µM; in the series with B. microti [1] (Babesia microti, 72 h), 1.73 ± 0.69 µM. Besides, the “effect on the activity of rBmPYKI” value at rBmPYKI is given as “significantly inhibit”. Moreover, on rBmLDH, the “effect on rBmLDH / LDH reaction activity” value is recorded as “did not affect”. Moreover, the “hemolysis of RBCs” value in the series on B. microti [1] (100 μM, infected RBC culture) was “Slight hemolysis”. In addition, in the series on B. microti [1] (Babesia microti, 72 h, read-out: inhibition rate of B. microti growth), the inhibition at 20 µM is 80%. The values for the CC50 in [2] and in series [3] were 0.63 ± 0.4 µM and 2.37 ± 0.26 µM, respectively.

As for `Cc1ccc(C(=O)Nc2ccc(S(=O)(=O)O)c3cc(S(=O)(=O)O)cc(S(=O)(=O)O)c23)cc1NC(=O)c1cccc(NC(=O)Nc2cccc(C(=O)Nc3cc(C(=O)Nc4ccc(S(=O)(=O)O)c5cc(S(=O)(=O)O)cc(S(=O)(=O)O)c45)ccc3C)c2)c1` [Suramin], the IC50 was 125 µM on rBmPYKI (read-out: IC50 rBmPYKI) and 44.2 µM on rBmLDH (read-out: IC50 rBmLDH). Further, on rBmLDH, the “effect on rBmLDH / LDH reaction activity” value was “obvious inhibitory effect”.

As to `COc1c(O)cc(O)c2c(=O)cc(-c3ccccc3)oc12` [Wogonin], the IC50 on rBmPYKI amounted to 185 µM. For the same molecule, on rBmLDH, the IC50 was found to be 143 µM and the “effect on rBmLDH / LDH reaction activity” value is on record as “obvious inhibitory effect”.

In the case of Tannic acid, the “effect on the activity of rBmPYKI” value on rBmPYKI is recorded as “significantly inhibit; also recorded: significantly reduce”. Moreover, the “inhibition of the activity of rBmPYKI” value against rBmPYKI (3 µM) is recorded as “more than 90%”. The 50% inhibitory concentration (IC50) is 0.5 µM and 0.49 µM on rBmPYKI (read-out: IC50 rBmPYKI); 23.6 µM on rBmLDH (read-out: IC50 rBmLDH); 0.77 µM in the series on B. microti [1] (setting [7]). Also, the “inhibition rate of B. microti growth” value in the series with B. microti [1] (20 μM, 72 h) came to 80%. The “inhibition of B. microti growth” value in the series on B. microti [4] (1 μM, concentration used in rescue assay) came to 70%. The “effect of addition of ATP on the inhibitory effect” value in the series with B. microti [4] (2 mM ATP, tannic acid 1 μM, DA about 10 μM) is given as “did not affect”. Besides, the “effect of addition of pyruvate on the inhibitory effect” value in the series with B. microti [4] (2 mM pyruvic acid, tannic acid 1 μM, DA about 10 μM) was “rescue”. The “microscopy observation of inhibited parasites” value in the series on B. microti [4] (Giemsa staining) is “mostly located outside RBCs”. Besides, in the series with B. microti [4] (tannic acid 1 μM, DA about 10 μM), the “inhibition of B. microti as compared with DMSO” value is reported as “significantly inhibit”. For the same molecule, the CC50 in the series with Vero cells amounted to 53 ± 2.8 µM; with HFF cells it was 36.5 ± 4.75 µM.

B1: rBmPYKI (Babesia microti strain RI) (protein)
chain: MNRIIKAVPDDEISKKLTKIVCTIGPASANVDKIVAMIKSGMNVCRFNFSHGTHETHYETMKLVKEAMKQVPGKHIALMIDTKGPEIRTGKLAQGDYIQLTAGQTVKITSDQSVLCTNEIISITYEHLTSSVKPGNIILMADGTISFKVISVEKDYVVGEVMNSARLSNRKNVNLPGVKVNIPVIGEKDKKDILEFGVAHNMDYIAVSFVQSANDILSVKKLIGHNSNLKIISKIENVEGLINFDEILEVSDGIMIARGDLGMEIPSEKVFIAQKMMIYKCNIAGKPVITATQMLESMIVNPRPTRAEVTDVANAVLDGSDCVMLSGETANGAFSVECVRLMSHICLEAESCTDHMSVYLNLLKAIPTPVTTQEAIVRCSVGAIYSVNASCIIALTETGKTASLLAKYKPNQLIIAICNNENVAAGLALNRGVVPIMVDSFIDSDANINHAIEFAKKNNIVVEGSTVLAVHGMVSCAPGNTDMLKILNV
notes: recombinant, pGEX-6p-1, E. coli BL21, GST tag removed by 3C protease, 54 kDa
A word on the Km: it is the substrate concentration at which the rate is half of its maximum. In general, Vmax refers to the top rate of the reaction or transport when substrate is in excess. In the case of B1, the Km in series [5] came to 655 ± 117 µM; in series [6] it was 388 ± 87 µM. For the same molecule, the maximum rate (Vmax) in series [5] was 250 µmol/min/mg; in [6] it was 242 µmol/min/mg.

Values taken from PMC8481833, “Kinetic Characterization and Inhibitor Screening of Pyruvate Kinase I From Babesia microti” (Frontiers in Microbiology, 2021).
